The values that follow are results of earlier work, collected in patent US7732404B2 (priority 1999, dated 2010).

The data set concerns mice. The following applies: mouse, in vivo, po.

With `CCOC(=O)C(C)O` (stereo not shown) [Ethyl lactate, 2-hydroxypropanoic acid ethyl ester], the LD50 result is “higher than 5 g/kg”.
